Measurements: ChEMBL document CHEMBL4507295 (2021)

Key:
[1] = biological target: Serine/threonine-protein kinase LATS2 (Homo sapiens) (UniProt Q9NRM7); conditions: Compound concentration 1000.0 nM
[2] = biological target: 5-hydroxytryptamine receptor 1D (Homo sapiens) (UniProt P28221); conditions: Compound concentration 10.0 uM
[3] = biological target: Serine/threonine-protein kinase OSR1 (Homo sapiens) (UniProt O95747); conditions: Compound concentration 1000.0 nM
[4] = biological target: Cyclin-dependent kinase 8 (Homo sapiens) (UniProt P49336); conditions: Compound concentration 1000.0 nM
[5] = biological target: SRSF protein kinase 2 (Homo sapiens) (UniProt P78362); conditions: Compound concentration 1000.0 nM
[6] = biological target: Serine/threonine-protein kinase TAO3 (Homo sapiens) (UniProt Q9H2K8); conditions: Compound concentration 1000.0 nM
[7] = biological target: Ribosomal protein S6 kinase alpha-2 (Homo sapiens) (UniProt Q15349); conditions: Compound concentration 1000.0 nM
[8] = tested on: Hepatocyte growth factor receptor (Homo sapiens), P08581 [Y1235D]; conditions: Compound concentration 1000.0 nM
[9] = biological target: LIM domain kinase 1 (Homo sapiens) (UniProt P53667); conditions: Compound concentration 1000.0 nM
[10] = tested on: Tyrosine-protein kinase ABL1 (Homo sapiens), P00519 [E255K]; conditions: Compound concentration 1000.0 nM
[11] = biological target: Mitogen-activated protein kinase kinase kinase 9 (Homo sapiens) (UniProt P80192); conditions: Compound concentration 1000.0 nM
[12] = biological target: Cyclin-dependent kinase-like 3 (Homo sapiens) (UniProt Q8IVW4); conditions: Compound concentration 1000.0 nM
[13] = biological target: Protein kinase C delta type (Homo sapiens) (UniProt Q05655); conditions: Compound concentration 1000.0 nM
[14] = biological target: Ribosomal protein S6 kinase alpha-1 (Homo sapiens) (UniProt Q15418); conditions: Compound concentration 1000.0 nM
[15] = biological target: Dual specificity tyrosine-phosphorylation-regulated kinase 1A (Homo sapiens) (UniProt Q13627); conditions: Compound concentration 1000.0 nM
[16] = biological target: Serine/threonine-protein kinase 38 (Homo sapiens) (UniProt Q15208); conditions: Compound concentration 1000.0 nM
[17] = biological target: Beta-3 adrenergic receptor (Homo sapiens) (UniProt P13945); conditions: Compound concentration 10.0 uM
[18] = tested on: Mast/stem cell growth factor receptor Kit (Homo sapiens), P10721 [V559D,V654A]; conditions: Compound concentration 1000.0 nM
[19] = biological target: Vascular endothelial growth factor receptor 1 (Homo sapiens) (UniProt P17948); conditions: Compound concentration 1000.0 nM
[20] = biological target: Tyrosine-protein kinase Yes (Homo sapiens) (UniProt P07947); conditions: Compound concentration 1000.0 nM
[21] = biological target: Serine/threonine-protein kinase DCLK1 (Homo sapiens) (UniProt O15075); conditions: Compound concentration 1000.0 nM
[22] = biological target: Serine/threonine-protein kinase WNK3 (Homo sapiens) (UniProt Q9BYP7); conditions: Compound concentration 1000.0 nM
[23] = biological target: Serine/threonine-protein kinase PLK2 (Homo sapiens) (UniProt Q9NYY3); conditions: Compound concentration 1000.0 nM
[24] = biological target: Mitogen-activated protein kinase kinase kinase kinase 2 (Homo sapiens) (UniProt Q12851); conditions: Compound concentration 1000.0 nM
[25] = biological target: Tyrosine-protein kinase SYK (Homo sapiens) (UniProt P43405); conditions: Compound concentration 1000.0 nM
[26] = biological target: Serine/threonine-protein kinase pim-1 (Homo sapiens) (UniProt P11309); conditions: Compound concentration 1000.0 nM
[27] = biological target: Atypical kinase COQ8A, mitochondrial (Homo sapiens) (UniProt Q8NI60); conditions: Compound concentration 1000.0 nM
[28] = biological target: Serine/threonine-protein kinase ULK3 (Homo sapiens) (UniProt Q6PHR2); conditions: Compound concentration 1000.0 nM
[29] = tested on: Phosphatidylinositol 4,5-bisphosphate 3-kinase catalytic subunit alpha isoform (Homo sapiens), P42336 [E545A]; conditions: Compound concentration 1000.0 nM
[30] = biological target: Dual specificity mitogen-activated protein kinase kinase 5 (Homo sapiens) (UniProt Q13163); conditions: Compound concentration 1000.0 nM
[31] = biological target: Mitogen-activated protein kinase kinase kinase 14 (Homo sapiens) (UniProt Q99558); conditions: Compound concentration 1000.0 nM
[32] = biological target: Serine/threonine-protein kinase haspin (Homo sapiens) (UniProt Q8TF76); conditions: Compound concentration 1000.0 nM
[33] = biological target: NUAK family SNF1-like kinase 2 (Homo sapiens) (UniProt Q9H093); conditions: Compound concentration 1000.0 nM
[34] = biological target: Serine/threonine-protein kinase MRCK gamma (Homo sapiens) (UniProt Q6DT37); conditions: Compound concentration 1000.0 nM
[35] = biological target: Mitogen-activated protein kinase kinase kinase 15 (Homo sapiens) (UniProt Q6ZN16); conditions: Compound concentration 1000.0 nM
[36] = tested on: Tyrosine-protein kinase ABL1 (Homo sapiens), P00519 [Q252H]; conditions: Compound concentration 1000.0 nM
[37] = biological target: Cyclin-dependent kinase 2 (Homo sapiens) (UniProt P24941); conditions: Compound concentration 1000.0 nM
[38] = tested on: Phosphatidylinositol 4,5-bisphosphate 3-kinase catalytic subunit alpha isoform (Homo sapiens), P42336 [E542K]; conditions: Compound concentration 1000.0 nM
[39] = biological target: RAC-gamma serine/threonine-protein kinase (Homo sapiens) (UniProt Q9Y243); conditions: Compound concentration 1000.0 nM
[40] = biological target: Serine/threonine-protein kinase MARK1 (Homo sapiens) (UniProt Q9P0L2); conditions: Compound concentration 1000.0 nM
[41] = biological target: Phosphatidylinositol 5-phosphate 4-kinase type-2 beta (Homo sapiens) (UniProt P78356); conditions: Compound concentration 1000.0 nM
[42] = biological target: Beta-1 adrenergic receptor (Homo sapiens) (UniProt P08588); conditions: Compound concentration 10.0 uM
[43] = biological target: Serine/threonine-protein kinase SIK2 (Homo sapiens) (UniProt Q9H0K1); conditions: Compound concentration 1000.0 nM
[44] = biological target: Proto-oncogene tyrosine-protein kinase Src (Homo sapiens) (UniProt P12931); conditions: Compound concentration 1000.0 nM
[45] = biological target: Receptor-type tyrosine-protein kinase FLT3 (Homo sapiens) (UniProt P36888); conditions: Compound concentration 1000.0 nM

Vascular endothelial growth factor receptor 1 (Homo sapiens), sequence (P17948 whole entry): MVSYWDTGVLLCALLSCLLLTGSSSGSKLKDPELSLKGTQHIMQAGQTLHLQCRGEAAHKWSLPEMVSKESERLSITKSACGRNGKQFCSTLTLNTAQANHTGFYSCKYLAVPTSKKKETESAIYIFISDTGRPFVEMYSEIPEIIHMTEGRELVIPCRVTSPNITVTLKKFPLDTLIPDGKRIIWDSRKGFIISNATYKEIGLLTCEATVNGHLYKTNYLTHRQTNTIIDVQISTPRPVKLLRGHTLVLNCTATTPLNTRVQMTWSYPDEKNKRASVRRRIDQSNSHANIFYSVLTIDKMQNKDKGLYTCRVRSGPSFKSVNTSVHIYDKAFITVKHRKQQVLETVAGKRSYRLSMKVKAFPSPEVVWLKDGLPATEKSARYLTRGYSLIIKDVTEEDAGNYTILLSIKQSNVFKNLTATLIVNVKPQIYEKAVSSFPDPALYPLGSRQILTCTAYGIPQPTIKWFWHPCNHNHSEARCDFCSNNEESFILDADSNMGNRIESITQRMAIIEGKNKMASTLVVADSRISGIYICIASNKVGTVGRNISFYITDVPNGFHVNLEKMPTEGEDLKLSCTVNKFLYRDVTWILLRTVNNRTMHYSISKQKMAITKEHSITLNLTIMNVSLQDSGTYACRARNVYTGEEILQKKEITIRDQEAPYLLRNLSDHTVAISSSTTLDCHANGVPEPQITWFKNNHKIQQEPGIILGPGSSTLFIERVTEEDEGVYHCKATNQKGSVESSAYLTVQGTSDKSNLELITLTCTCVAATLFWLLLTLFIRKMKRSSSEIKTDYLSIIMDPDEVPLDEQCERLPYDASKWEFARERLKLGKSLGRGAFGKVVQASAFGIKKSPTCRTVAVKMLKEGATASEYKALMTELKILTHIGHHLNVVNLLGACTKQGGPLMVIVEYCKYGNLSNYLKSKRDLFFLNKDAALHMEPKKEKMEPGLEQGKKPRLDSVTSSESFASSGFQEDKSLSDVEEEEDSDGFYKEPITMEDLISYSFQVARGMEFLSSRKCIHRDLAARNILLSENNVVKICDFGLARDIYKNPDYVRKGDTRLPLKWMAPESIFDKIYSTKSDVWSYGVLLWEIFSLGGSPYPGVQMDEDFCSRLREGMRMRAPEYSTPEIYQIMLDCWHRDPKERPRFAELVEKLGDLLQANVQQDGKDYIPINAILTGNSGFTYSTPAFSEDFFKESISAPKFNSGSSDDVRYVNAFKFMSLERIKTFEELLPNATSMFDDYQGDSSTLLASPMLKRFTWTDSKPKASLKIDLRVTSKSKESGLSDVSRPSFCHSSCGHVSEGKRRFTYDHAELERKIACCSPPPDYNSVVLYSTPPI
RAC-gamma serine/threonine-protein kinase (Homo sapiens), sequence (Q9Y243 whole entry): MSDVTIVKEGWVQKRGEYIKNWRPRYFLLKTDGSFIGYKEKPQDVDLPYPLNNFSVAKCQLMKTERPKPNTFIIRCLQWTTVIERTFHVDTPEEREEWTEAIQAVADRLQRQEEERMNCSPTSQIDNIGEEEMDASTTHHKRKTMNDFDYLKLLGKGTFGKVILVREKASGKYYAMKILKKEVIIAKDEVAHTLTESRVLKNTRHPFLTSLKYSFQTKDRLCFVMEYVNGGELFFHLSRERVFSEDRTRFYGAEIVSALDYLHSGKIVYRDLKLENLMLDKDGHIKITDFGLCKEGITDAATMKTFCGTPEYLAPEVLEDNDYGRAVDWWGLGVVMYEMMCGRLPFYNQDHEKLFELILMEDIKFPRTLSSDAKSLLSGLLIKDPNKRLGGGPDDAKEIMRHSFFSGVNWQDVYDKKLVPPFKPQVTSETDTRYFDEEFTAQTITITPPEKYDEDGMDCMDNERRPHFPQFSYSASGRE
Mitogen-activated protein kinase kinase kinase 9 (Homo sapiens), sequence (P80192 whole entry, looked up): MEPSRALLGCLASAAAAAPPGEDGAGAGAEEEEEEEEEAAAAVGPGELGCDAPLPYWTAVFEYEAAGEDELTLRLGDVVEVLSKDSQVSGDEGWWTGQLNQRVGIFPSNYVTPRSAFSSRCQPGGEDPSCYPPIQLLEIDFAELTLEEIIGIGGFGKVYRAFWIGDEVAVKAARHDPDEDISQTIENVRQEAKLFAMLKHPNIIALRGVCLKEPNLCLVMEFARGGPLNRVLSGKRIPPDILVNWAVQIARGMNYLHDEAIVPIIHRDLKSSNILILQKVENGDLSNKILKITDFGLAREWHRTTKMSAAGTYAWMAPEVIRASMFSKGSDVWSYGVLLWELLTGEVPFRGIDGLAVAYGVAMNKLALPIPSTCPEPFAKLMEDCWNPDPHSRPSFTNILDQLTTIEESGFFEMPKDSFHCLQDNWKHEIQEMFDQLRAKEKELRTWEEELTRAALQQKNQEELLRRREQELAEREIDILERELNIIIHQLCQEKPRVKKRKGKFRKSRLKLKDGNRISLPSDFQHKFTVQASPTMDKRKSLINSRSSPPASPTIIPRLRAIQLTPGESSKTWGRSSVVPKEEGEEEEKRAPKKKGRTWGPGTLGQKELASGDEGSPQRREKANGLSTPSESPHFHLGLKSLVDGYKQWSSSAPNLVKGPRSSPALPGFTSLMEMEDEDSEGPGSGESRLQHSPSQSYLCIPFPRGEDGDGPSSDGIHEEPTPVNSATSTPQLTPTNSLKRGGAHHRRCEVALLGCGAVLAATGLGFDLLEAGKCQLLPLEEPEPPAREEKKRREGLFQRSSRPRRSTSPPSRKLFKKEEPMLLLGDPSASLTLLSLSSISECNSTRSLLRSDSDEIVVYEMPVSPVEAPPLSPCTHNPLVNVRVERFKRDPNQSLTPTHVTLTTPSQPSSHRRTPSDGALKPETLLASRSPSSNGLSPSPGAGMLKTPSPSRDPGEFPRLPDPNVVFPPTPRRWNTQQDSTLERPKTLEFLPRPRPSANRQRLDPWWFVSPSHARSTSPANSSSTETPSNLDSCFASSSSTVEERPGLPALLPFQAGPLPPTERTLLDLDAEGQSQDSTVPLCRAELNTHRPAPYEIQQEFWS
Serine/threonine-protein kinase haspin (Homo sapiens), sequence (Q8TF76 whole entry): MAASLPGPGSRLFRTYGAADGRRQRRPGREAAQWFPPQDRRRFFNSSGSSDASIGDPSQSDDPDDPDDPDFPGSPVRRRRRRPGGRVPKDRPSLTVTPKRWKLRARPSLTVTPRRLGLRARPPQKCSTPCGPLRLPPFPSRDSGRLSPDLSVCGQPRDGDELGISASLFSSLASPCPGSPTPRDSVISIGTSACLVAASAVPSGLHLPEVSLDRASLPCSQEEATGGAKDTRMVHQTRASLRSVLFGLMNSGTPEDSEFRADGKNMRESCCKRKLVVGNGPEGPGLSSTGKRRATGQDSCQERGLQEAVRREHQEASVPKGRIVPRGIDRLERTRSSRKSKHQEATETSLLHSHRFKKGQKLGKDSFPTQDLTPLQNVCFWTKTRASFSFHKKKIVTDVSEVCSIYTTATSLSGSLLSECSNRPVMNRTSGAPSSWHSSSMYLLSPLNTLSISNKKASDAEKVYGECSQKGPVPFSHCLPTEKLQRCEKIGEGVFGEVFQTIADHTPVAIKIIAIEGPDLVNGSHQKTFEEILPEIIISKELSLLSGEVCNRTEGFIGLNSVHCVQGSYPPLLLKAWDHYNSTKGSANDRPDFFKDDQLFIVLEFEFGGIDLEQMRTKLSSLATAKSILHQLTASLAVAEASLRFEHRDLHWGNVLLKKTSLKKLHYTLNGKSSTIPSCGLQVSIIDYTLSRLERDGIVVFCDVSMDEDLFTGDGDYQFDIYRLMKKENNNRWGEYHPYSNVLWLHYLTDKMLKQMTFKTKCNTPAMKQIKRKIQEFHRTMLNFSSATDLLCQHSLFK
Serine/threonine-protein kinase PLK2 (Homo sapiens), sequence (Q9NYY3 whole entry, looked up): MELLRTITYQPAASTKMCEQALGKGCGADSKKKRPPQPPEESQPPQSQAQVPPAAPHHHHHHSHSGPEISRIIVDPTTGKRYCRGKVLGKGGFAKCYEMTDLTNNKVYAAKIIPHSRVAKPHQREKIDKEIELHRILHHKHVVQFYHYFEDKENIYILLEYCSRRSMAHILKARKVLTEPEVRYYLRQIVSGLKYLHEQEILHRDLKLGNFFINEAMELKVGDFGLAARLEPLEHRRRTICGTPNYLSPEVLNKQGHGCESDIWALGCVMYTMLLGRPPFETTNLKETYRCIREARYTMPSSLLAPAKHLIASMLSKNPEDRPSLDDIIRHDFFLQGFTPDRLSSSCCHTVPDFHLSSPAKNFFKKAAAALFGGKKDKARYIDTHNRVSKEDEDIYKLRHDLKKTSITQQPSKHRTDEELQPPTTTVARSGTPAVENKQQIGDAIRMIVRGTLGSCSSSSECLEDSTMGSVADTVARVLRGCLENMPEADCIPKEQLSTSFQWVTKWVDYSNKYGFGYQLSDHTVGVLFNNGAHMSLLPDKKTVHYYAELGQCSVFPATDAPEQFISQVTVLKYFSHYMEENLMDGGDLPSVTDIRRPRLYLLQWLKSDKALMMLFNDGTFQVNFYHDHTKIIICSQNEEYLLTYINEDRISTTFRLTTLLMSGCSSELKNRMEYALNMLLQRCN
5-hydroxytryptamine receptor 1D (Homo sapiens), sequence (P28221 whole entry): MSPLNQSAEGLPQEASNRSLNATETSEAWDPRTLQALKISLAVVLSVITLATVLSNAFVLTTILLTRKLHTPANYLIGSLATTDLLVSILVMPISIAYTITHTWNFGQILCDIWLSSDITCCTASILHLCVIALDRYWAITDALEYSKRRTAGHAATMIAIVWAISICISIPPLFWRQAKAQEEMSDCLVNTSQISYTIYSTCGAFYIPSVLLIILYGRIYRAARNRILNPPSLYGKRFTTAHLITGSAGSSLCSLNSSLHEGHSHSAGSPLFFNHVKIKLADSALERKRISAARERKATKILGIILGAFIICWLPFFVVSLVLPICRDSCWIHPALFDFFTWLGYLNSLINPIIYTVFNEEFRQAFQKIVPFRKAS

N#CC1(c2ccccn2)CCN(Cc2cc(C(=O)O)c(=O)n3ccccc23)CC1 [MSD-M1PAM]
inactive: residual activity [1] 95% | inhibition [2] -4.55% | residual activity [3] 79% | residual activity [4] 100% | residual activity [5] 100% | residual activity [6] 78% | residual activity [7] 100% | residual activity [8] 99% | residual activity [9] 100% | residual activity [10] 100% | residual activity [11] 92% | residual activity [12] 89% | residual activity [13] 100% | residual activity [14] 94% | residual activity [15] 97% | residual activity [16] 93% | inhibition [17] -5.05% | residual activity [18] 100% | residual activity [19] 92% | residual activity [20] 94% | residual activity [21] 100% | residual activity [22] 99% | residual activity [23] 80% | residual activity [24] 81% | residual activity [25] 92% | residual activity [26] 99% | residual activity [27] 100% | residual activity [28] 89% | residual activity [29] 100% | residual activity [30] 62% | residual activity [31] 73% | residual activity [32] 100% | residual activity [33] 77% | residual activity [34] 100% | residual activity [35] 100% | residual activity [36] 89% | residual activity [37] 100% | residual activity [38] 87% | residual activity [39] 100% | residual activity [40] 94% | residual activity [41] 100% | inhibition [42] 16.2% | residual activity [43] 100% | residual activity [44] 100% | residual activity [45] 80%

N#CC1(c2ccccn2)CCN(Cc2cc(C(=O)N3CCCC3)c(=O)n3ccccc23)CC1
inactive: residual activity [1] 93% | inhibition [2] 14.6% | residual activity [3] 100% | residual activity [4] 100% | residual activity [5] 84% | residual activity [6] 100% | residual activity [7] 86% | residual activity [8] 97% | residual activity [9] 98% | residual activity [10] 87% | residual activity [11] 72% | residual activity [12] 78% | residual activity [13] 95% | residual activity [14] 100% | residual activity [15] 94% | residual activity [16] 64% | inhibition [17] 17.4% | residual activity [18] 100% | residual activity [19] 100% | residual activity [20] 84% | residual activity [21] 91% | residual activity [22] 94% | residual activity [23] 100% | residual activity [24] 96% | residual activity [25] 92% | residual activity [26] 100% | residual activity [27] 85% | residual activity [28] 96% | residual activity [29] 78% | residual activity [30] 100% | residual activity [31] 100% | residual activity [32] 100% | residual activity [33] 100% | residual activity [34] 88% | residual activity [35] 100% | residual activity [36] 97% | residual activity [37] 86% | residual activity [38] 90% | residual activity [39] 74% | residual activity [40] 100% | residual activity [41] 62% | inhibition [42] -5.76% | residual activity [43] 100% | residual activity [44] 56% | residual activity [45] 98%
